Tests used:
Format in all cases: cell-based
CSCs = assay: phenotypic effects in CSCs (MOA controls); conditions: compared to ISX9 (data not shown)
Excerpt: (§1) Therefore, to begin to characterize the MOA of ISX9 in CSCs, it was first determined whether ISX9 treatment of CSCs triggered Ca^2+ signaling. MDAs were transduced to express the genetically encoded Ca^2+ sensor GCamp6f and treated with vehicle, ionomycin (positive control), or ISX9 (data not shown). […] FIG. 5 depicts Ca^2+ response of MDAs to ISX9 treatment. Scale bar=250 μm.

MDAs [1] = assay: Ca2+ signaling with genetically encoded Ca2+ sensor GCamp6f; conditions: GCamp6f-expressing MDAs (data not shown)
Excerpt: as §1

MDAs [2] = assay: invasion distances of MDAs in HD Col1 treated with GSIs; conditions: HD Col1, vs vehicle (0.1% DMSO)
Excerpt: Therefore, this example assessed what effect GSIs would have on MDAs in HD Col1. […] FIG. 3C depicts invasion distances of MDAs in HD Col1 treated with vehicle (0.1% DMSO) or GSIs DAPT and MK0752.

MDA-MB-231s = assay: CD24 mRNA expression in 2D (differentiation screening); conditions: 200 μM, 48h, FCthreshold=2.0
Experimental: FIG. 3H depicts relative CD24 mRNA expression. CD24 expression was an early indicator of response to ISX9 in 2D across several TNBC cell lines. Treatment screening of several different TNBC cell lines with ISX9 in 2D for 48h yielded four responders, as determined by CD24 mRNA expression (FIG. 3H).
These analogs were screened for their potential to differentiate MDA-MB-231s, yielding at least one new hit, CR-1 (˜98% similarity), which induced a ˜6-fold upregulation of CD24 at a concentration of 200 μM at 48h in 2D (FIG. 6).

MDA-MB-231 cells = assay: western blot of acetylation of histones H3 and H4; conditions: 2D- and 3D-treated cells, 24 hours
Excerpt: Also identified was the fact that a similar increase in acetylation was found in patient-derived organoid models. […] Acetylation and deactylation of histones H3 and H4 are typically orchestrated by Histone Acetyltransferases (HATs), including the several HAT subfamilies, as well as HDACs (see, e.g., Marmorstein, R. et al. Cold Spring Harb. Perspect. Biol. 6, a018762 (2014)). Not wishing to be bound by any particular theory, Isx9 may bind directly to HATs and/or HDACs in order to activate histone acetylation and drive induction of MET and/or CSC differentiation.

CN[C@H](CC(=O)O)C(=O)O [NMDA, N-Methyl-D-aspartate]
phenotypic effects (CSCs): no phenotypic effects

C[C@H](CCC(=O)O)C[C@H](C)C[C@H](C)C(=O)/C=C(\O)[C@H](C)C[C@H](C)C/C=C/[C@@H](C)[C@@H](O)[C@@H](C)[C@@H](O)C[C@@H]1CC[C@@](C)([C@H]2CC[C@@](C)([C@@H](C)O)O2)O1 [ionomycin, reference compound]
Ca2+ signal (MDAs [1]): observed

C[C@H](NC(=O)Cc1cc(F)cc(F)c1)C(=O)N[C@H](C(=O)OC(C)(C)C)c1ccccc1 [DAPT]
inhibition of the CINP / tumor cell invasion (MDAs [2]): did not inhibit the CINP, but rather slightly promoted tumor cell invasion

CC(C)NC(=O)c1cc(-c2cccs2)on1 [CR-1]
upregulation of CD24 (MDA-MB-231s): ~6 fold

O=C(O)CC[C@H]1CC[C@@](c2cc(F)ccc2F)(S(=O)(=O)c2ccc(Cl)cc2)CC1 [MK0752]
inhibition of the CINP / tumor cell invasion (MDAs [2]): did not inhibit the CINP, but rather slightly promoted tumor cell invasion

CC(/C=C/C(=O)NO)=C\[C@@H](C)C(=O)c1ccc(N(C)C)cc1 [TSA, reference compound]
acetylation of histones H3 and H4 (MDA-MB-231 cells): similarly induced H3/H4 acetylation

— US20250362286A1, “SCREENING MODELS AND METHODS OF CANCER TREATMENT” (The Regents of the University of California, priority 2022, published 2025)
